Tested on: Klebsiella pneumoniae (KPN) isolates
Test: MIC of compounds alone and combined with antibacterials, broth microdilution (CLSI)
Format: cell-based
Procedure, shortened: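 Log-phase isolates were inoculated at a final 5.10^5 CFU/mL in cation-adjusted Mueller-Hinton broth and incubated 16-20 h at 35° C in ambient air. MIC was the lowest concentration preventing visible growth; for combinations, the antibacterial MIC was read at each compound concentration.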

In the case of C=CC1=C(C(=O)O)N2C(=O)[C@@H](NC(=O)/C(=N\OCC(=O)O)c3csc(N)n3)[C@H]2SC1 [FIX, Cefixime], the “MIC ATB in combination” value (KPN UFR24, AF2 @ 8 μg/mL) is reported as 0.5 µg/mL, the “MIC ATB in combination” value (KPN UFR24, AF3 @ 8 μg/mL) is reported as 0.5 µg/mL and the “MIC ATB in combination” value (KPN UFR24, CLA @ 4 μg/mL) is reported as 64 µg/mL. For the same compound, the “MIC ATB in combination” value (KPN UFR25, AF2 @ 8 μg/mL) was <0.25 µg/mL, the “MIC ATB in combination” value (KPN UFR25, AF3 @ 8 μg/mL) was <0.25 µg/mL and the “MIC ATB in combination” value (KPN UFR25, CLA @ 4 μg/mL) was 64 µg/mL. For the same compound, the “MIC ATB in combination” value (KPN UFR27, AF2 @ 8 μg/mL) was 8 µg/mL, the “MIC ATB in combination” value (KPN UFR27, AF3 @ 8 μg/mL) was 8 µg/mL and the “MIC ATB in combination” value (KPN UFR27, CLA @ 4 μg/mL) was >128 µg/mL. The “MIC ATB in combination” value (KPN UFR28, AF2 @ 8 μg/mL) was <0.25 µg/mL, the “MIC ATB in combination” value (KPN UFR28, AF3 @ 8 μg/mL) was 2 µg/mL and the “MIC ATB in combination” value (KPN UFR28, CLA @ 4 μg/mL) was 64 µg/mL. The “MIC ATB in combination” value (KPN UFR33, AF2 @ 8 μg/mL) was “<=0.25 μg/mL”, the “MIC ATB in combination” value (KPN UFR33, AF3 @ 8 μg/mL) was >128 µg/mL and the “MIC ATB in combination” value (KPN UFR33, CLA @ 4 μg/mL) was >128 µg/mL. For the same compound, the “MIC ATB in combination” value (KPN UFR42, AF2 @ 8 μg/mL) was 128 µg/mL, the “MIC ATB in combination” value (KPN UFR42, AF3 @ 8 μg/mL) was >128 µg/mL and the “MIC ATB in combination” value (KPN UFR42, CLA @ 4 μg/mL) was >128 µg/mL. For the same compound, the “MIC ATB in combination” value (KPN UFR43, AF2 @ 8 μg/mL) was <0.25 µg/mL, the “MIC ATB in combination” value (KPN UFR43, AF3 @ 8 μg/mL) was <0.25 µg/mL and the “MIC ATB in combination” value (KPN UFR43, CLA @ 4 μg/mL) was >128 µg/mL. The “MIC ATB in combination” value (KPN UFR46, AF2 @ 8 μg/mL) was >128 µg/mL, the “MIC ATB in combination” value (KPN UFR46, AF3 @ 8 μg/mL) was >128 µg/mL and the “MIC ATB in combination” value (KPN UFR46, CLA @ 4 μg/mL) was >128 µg/mL. For the same compound, the “MIC ATB in combination” value (KPN UFR53, AF2 @ 8 μg/mL) was <0.25 µg/mL, the “MIC ATB in combination” value (KPN UFR53, AF3 @ 8 μg/mL) was “<=0.25 μg/mL” and the “MIC ATB in combination” value (KPN UFR53, CLA @ 4 μg/mL) was 128 µg/mL. The “MIC ATB in combination” value (KPN UFR65, AF2 @ 8 μg/mL) was 0.5 µg/mL, the “MIC ATB in combination” value (KPN UFR65, AF3 @ 8 μg/mL) was “<=0.25 μg/mL” and the “MIC ATB in combination” value (KPN UFR65, CLA @ 4 μg/mL) was 128 µg/mL. For the same compound, the “MIC ATB in combination” value (KPN UFR66, AF2 @ 8 μg/mL) was 4 µg/mL, the “MIC ATB in combination” value (KPN UFR66, AF3 @ 8 μg/mL) was 4 µg/mL and the “MIC ATB in combination” value (KPN UFR66, CLA @ 4 μg/mL) was 64 µg/mL. The “MIC ATB in combination” value (KPN UFR67, AF2 @ 8 μg/mL) was 4 µg/mL, the “MIC ATB in combination” value (KPN UFR67, AF3 @ 8 μg/mL) was 4 µg/mL and the “MIC ATB in combination” value (KPN UFR67, CLA @ 4 μg/mL) was 128 µg/mL. The “MIC ATB in combination” value (KPN UFR68, AF2 @ 8 μg/mL) was 0.5 µg/mL, the “MIC ATB in combination” value (KPN UFR68, AF3 @ 8 μg/mL) was 0.5 µg/mL and the “MIC ATB in combination” value (KPN UFR68, CLA @ 4 μg/mL) was 64 µg/mL. For the same compound, the “MIC ATB in combination” value (KPN UFR76, AF2 @ 8 μg/mL) was >128 µg/mL, the “MIC ATB in combination” value (KPN UFR76, AF3 @ 8 μg/mL) was >128 µg/mL and the “MIC ATB in combination” value (KPN UFR76, CLA @ 4 μg/mL) was >128 µg/mL. The “MIC ATB in combination” value (KPN UFR77, AF2 @ 8 μg/mL) was 0.5 µg/mL, the “MIC ATB in combination” value (KPN UFR77, AF3 @ 8 μg/mL) was “<=0.25 μg/mL” and the “MIC ATB in combination” value (KPN UFR77, CLA @ 4 μg/mL) was 128 µg/mL. For the same compound, the “MIC ATB in combination” value (KPN UFR78, AF2 @ 8 μg/mL) was >128 µg/mL, the “MIC ATB in combination” value (KPN UFR78, AF3 @ 8 μg/mL) was >128 µg/mL and the “MIC ATB in combination” value (KPN UFR78, CLA @ 4 μg/mL) was >128 µg/mL. For the same compound, the “MIC ATB in combination” value (KPN UFR79, AF2 @ 8 μg/mL) was 2 µg/mL, the “MIC ATB in combination” value (KPN UFR79, AF3 @ 8 μg/mL) was 2 µg/mL and the “MIC ATB in combination” value (KPN UFR79, CLA @ 4 μg/mL) was >128 µg/mL. For the same compound, the “MIC ATB in combination” value (KPN UFR80, AF2 @ 8 μg/mL) was “<=0.25 μg/mL”, the “MIC ATB in combination” value (KPN UFR80, AF3 @ 8 μg/mL) was “<=0.25 μg/mL” and the “MIC ATB in combination” value (KPN UFR80, CLA @ 4 μg/mL) was 0.5 µg/mL. For the same compound, the “MIC ATB in combination” value (KPN UFR81, AF2 @ 8 μg/mL) was 64 µg/mL, the “MIC ATB in combination” value (KPN UFR81, AF3 @ 8 μg/mL) was 32 µg/mL and the “MIC ATB in combination” value (KPN UFR81, CLA @ 4 μg/mL) was >128 µg/mL. For the same compound, the “MIC ATB in combination” value (KPN UFR215, AF2 @ 8 μg/mL) was “<=0.25 μg/mL”, the “MIC ATB in combination” value (KPN UFR215, AF3 @ 8 μg/mL) was “<=0.25 μg/mL” and the “MIC ATB in combination” value (KPN UFR215, CLA @ 4 μg/mL) was 1 µg/mL. The “MIC ATB in combination” value (KPN UFR216, AF2 @ 8 μg/mL) was <0.25 µg/mL, the “MIC ATB in combination” value (KPN UFR216, AF3 @ 8 μg/mL) was <0.25 µg/mL and the “MIC ATB in combination” value (KPN UFR216, CLA @ 4 μg/mL) was “<=0.25 μg/mL”. For the same compound, the “MIC ATB in combination” value (KPN UFR217, AF2 @ 8 μg/mL) was <0.25 µg/mL, the “MIC ATB in combination” value (KPN UFR217, AF3 @ 8 μg/mL) was <0.25 µg/mL and the “MIC ATB in combination” value (KPN UFR217, CLA @ 4 μg/mL) was “<=0.25 μg/mL”. The “MIC ATB in combination” value (KPN UFR218, AF2 @ 8 μg/mL) was <0.25 µg/mL, the “MIC ATB in combination” value (KPN UFR218, AF3 @ 8 μg/mL) was <0.25 µg/mL and the “MIC ATB in combination” value (KPN UFR218, CLA @ 4 μg/mL) was 1 µg/mL. For the same compound, the “MIC ATB in combination” value (KPN UFR219, AF2 @ 8 μg/mL) was 0.5 µg/mL, the “MIC ATB in combination” value (KPN UFR219, AF3 @ 8 μg/mL) was “<=0.25 μg/mL” and the “MIC ATB in combination” value (KPN UFR219, CLA @ 4 μg/mL) was 0.5 µg/mL. The “MIC ATB in combination” value (KPN UFR220, AF2 @ 8 μg/mL) was <0.25 µg/mL, the “MIC ATB in combination” value (KPN UFR220, AF3 @ 8 μg/mL) was <0.25 µg/mL and the “MIC ATB in combination” value (KPN UFR220, CLA @ 4 μg/mL) was >128 µg/mL. For the same compound, the “MIC ATB in combination” value (KPN UFR221, AF2 @ 8 μg/mL) was <0.25 µg/mL, the “MIC ATB in combination” value (KPN UFR221, AF3 @ 8 μg/mL) was <0.25 µg/mL and the “MIC ATB in combination” value (KPN UFR221, CLA @ 4 μg/mL) was 128 µg/mL. The “MIC ATB in combination” value (KPN UFR222, AF2 @ 8 μg/mL) was <0.25 µg/mL, the “MIC ATB in combination” value (KPN UFR222, AF3 @ 8 μg/mL) was <0.25 µg/mL and the “MIC ATB in combination” value (KPN UFR222, CLA @ 4 μg/mL) was >128 µg/mL. The “MIC ATB in combination” value (KPN UFR227O, AF2 @ 8 μg/mL) was 8 µg/mL, the “MIC ATB in combination” value (KPN UFR227O, AF3 @ 8 μg/mL) was 16 µg/mL and the “MIC ATB in combination” value (KPN UFR227O, CLA @ 4 μg/mL) was >128 µg/mL. For the same compound, the MIC (strain KPN 6299, genotype TEM-1, SHV-11, OXA-163) was 8 µg/mL, the MIC (strain KPN 110376, compound alone) was >128 µg/mL and the MIC (strain KPN 110376, genotype TEM-1, SHV-1, CTX-M-15, OXA-1, OXA-48) was >128 µg/mL. The MIC (strain KPN 121206, genotype SHV-1, NDM-1) was >128 µg/mL, the MIC (strain KPN 131119, compound alone) was >128 µg/mL and the MIC (strain KPN 131119, genotype TEM-1, SHV-11, CTX-M-15, OXA-1, OXA-48) was >128 µg/mL. The MIC (strain KPN 140347, genotype CTX-M-15, NDM-1, antibiotic alone) was >128 µg/mL, the “MIC ATB in combination” value (strain KPN 140347, with AF2 @ 8 μg/mL) was >128 µg/mL and the “MIC ATB in combination” value (strain KPN 140347, with AF3 @ 8 μg/mL) was >128 µg/mL. For the same compound, the “MIC ATB in combination” value (strain KPN 140347, with CLA @ 4 μg/mL) was >128 µg/mL and the MIC (strain KPN 140513, genotype TEM-1, SHV-11, CTX-M-15, KPC-3) was >128 µg/mL.

Source: US20200017495A1, “NOVEL HETEROCYCLIC COMPOUNDS AND THEIR USE IN PREVENTING OR TREATING BACTERIAL INFECTIONS” (priority 2017, published 2020)
